Experimental data published in PubChem BioAssay (NCI).
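Step 1: Grow cells in 96-well plates. Step 2: Expose to compound for 48 hours at 5 concentrations. Step 3: Interpolate endpoints linearly; if unreached, use highest concentration. Definition used: TGI = concentration required for complete inhibition of growth.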

Key:
Test in all cases: growth of human tumour cells (NCI), 48 h
MALME-3M melanoma = system: MALME-3M melanoma
HCT-15 colon = system: HCT-15 colon
UO-31 renal = system: UO-31 renal
NCI-H226 lung = system: NCI-H226 lung
SF-539 CNS = system: SF-539 CNS
NCI/ADR-RES ovarian = system: NCI/ADR-RES ovarian
SW-620 colon = system: SW-620 colon
TK-10 renal = system: TK-10 renal
NCI-H23 lung = system: NCI-H23 lung
SNB-19 CNS = system: SNB-19 CNS
NCI-H460 lung = system: NCI-H460 lung
COLO 205 colon = system: COLO 205 colon
CCRF-CEM leukemia = system: CCRF-CEM leukemia
HOP-62 NSCLC = system: HOP-62 NSCLC
SK-OV-3 ovarian = system: SK-OV-3 ovarian
SK-MEL-5 melanoma = system: SK-MEL-5 melanoma
EKVX NSCLC = system: EKVX NSCLC
786-0 renal = system: 786-0 renal
KM12 colon = system: KM12 colon
MCF7 breast = system: MCF7 breast
SK-MEL-28 melanoma = system: SK-MEL-28 melanoma
HS 578T breast = system: HS 578T breast
HCC-2998 colon = system: HCC-2998 colon
M14 melanoma = system: M14 melanoma
A549 NSCLC = system: A549 NSCLC
NCI-H522 lung = system: NCI-H522 lung
SK-MEL-2 melanoma = system: SK-MEL-2 melanoma
CAKI-1 renal = system: CAKI-1 renal
IGROV1 ovarian = system: IGROV1 ovarian
BT-549 breast = system: BT-549 breast
RPMI-8226 leukemia = system: RPMI-8226 leukemia
UACC-257 melanoma = system: UACC-257 melanoma
HCT-116 colon = system: HCT-116 colon
HOP-92 NSCLC = system: HOP-92 NSCLC
LOX IMVI melanoma = system: LOX IMVI melanoma
OVCAR-5 ovarian = system: OVCAR-5 ovarian
ACHN renal = system: ACHN renal
MDA-MB-435 = system: MDA-MB-435
A498 renal = system: A498 renal
MDA-MB-231 breast = system: MDA-MB-231 breast
HT29 colon = system: HT29 colon
HL-60(TB) leukemia = system: HL-60(TB) leukemia
RXF 393 renal = system: RXF 393 renal
U251 CNS = system: U251 CNS
UACC-62 melanoma = system: UACC-62 melanoma
OVCAR-3 ovarian = system: OVCAR-3 ovarian
OVCAR-4 ovarian = system: OVCAR-4 ovarian
K-562 leukemia = system: K-562 leukemia
MDA-N = system: MDA-N
SN12C renal = system: SN12C renal
SF-268 CNS = system: SF-268 CNS
SNB-75 CNS = system: SNB-75 CNS
MOLT-4 leukemia = system: MOLT-4 leukemia
SF-295 CNS = system: SF-295 CNS
DU-145 prostate = system: DU-145 prostate
PC-3 prostate = system: PC-3 prostate
OVCAR-8 ovarian = system: OVCAR-8 ovarian
T-47D breast = system: T-47D breast
SR leukemia = system: SR leukemia

Compound `COn1oc(=O)c2ccccc21` has a TGI (MALME-3M melanoma) of over 100 µM, a TGI (HCT-15 colon) of over 100 µM and a TGI (UO-31 renal) of over 100 µM. It also gave a TGI (NCI-H226 lung) of over 100 µM, a TGI (SF-539 CNS) of over 100 µM and a TGI (NCI/ADR-RES ovarian) of over 100 µM. The TGI (SW-620 colon) was over 100 µM, the TGI (TK-10 renal) was over 100 µM and the TGI (NCI-H23 lung) was over 100 µM. For the same compound, the TGI (SNB-19 CNS) was over 100 µM, the TGI (NCI-H460 lung) was over 100 µM and the TGI (COLO 205 colon) was over 100 µM. It also gave a TGI (CCRF-CEM leukemia) of over 100 µM, a TGI (HOP-62 NSCLC) of over 100 µM and a TGI (SK-OV-3 ovarian) of over 100 µM. It also gave a TGI (SK-MEL-5 melanoma) of over 100 µM, a TGI (EKVX NSCLC) of over 100 µM and a TGI (786-0 renal) of over 100 µM. For the same compound, the TGI (KM12 colon) was over 100 µM, the TGI (MCF7 breast) was over 100 µM and the TGI (SK-MEL-28 melanoma) was over 100 µM. It also gave a TGI (HS 578T breast) of over 100 µM, a TGI (HCC-2998 colon) of over 100 µM and a TGI (M14 melanoma) of over 100 µM. It also gave a TGI (A549 NSCLC) of over 100 µM, a TGI (NCI-H522 lung) of over 100 µM and a TGI (SK-MEL-2 melanoma) of over 100 µM. The TGI (CAKI-1 renal) was over 100 µM, the TGI (IGROV1 ovarian) was over 100 µM and the TGI (BT-549 breast) was over 100 µM. For the same compound, the TGI (RPMI-8226 leukemia) was over 100 µM, the TGI (UACC-257 melanoma) was over 100 µM and the TGI (HCT-116 colon) was over 100 µM. It also gave a TGI (HOP-92 NSCLC) of over 100 µM, a TGI (LOX IMVI melanoma) of over 100 µM and a TGI (OVCAR-5 ovarian) of over 100 µM. It also gave a TGI (ACHN renal) of over 100 µM, a TGI (MDA-MB-435) of over 100 µM and a TGI (A498 renal) of over 100 µM. The TGI (MDA-MB-231 breast) was over 100 µM, the TGI (HT29 colon) was over 100 µM and the TGI (HL-60(TB) leukemia) was over 100 µM. For the same compound, the TGI (RXF 393 renal) was over 100 µM, the TGI (U251 CNS) was over 100 µM and the TGI (UACC-62 melanoma) was over 100 µM. It also gave a TGI (OVCAR-3 ovarian) of over 100 µM, a TGI (OVCAR-4 ovarian) of over 100 µM and a TGI (K-562 leukemia) of over 100 µM. It also gave a TGI (MDA-N) of over 100 µM, a TGI (SN12C renal) of over 100 µM and a TGI (SF-268 CNS) of over 100 µM. For the same compound, the TGI (SNB-75 CNS) was over 100 µM, the TGI (MOLT-4 leukemia) was over 100 µM and the TGI (SF-295 CNS) was over 100 µM. For the same compound, the TGI (DU-145 prostate) was over 100 µM, the TGI (PC-3 prostate) was over 100 µM and the TGI (OVCAR-8 ovarian) was over 100 µM.

`c1cc(C2=NCCO2)c2ccsc2c1` showed a TGI (MALME-3M melanoma) of over 100 µM, a TGI (HCT-15 colon) of over 100 µM and a TGI (UO-31 renal) of over 100 µM. It also gave a TGI (NCI-H226 lung) of over 100 µM, a TGI (SF-539 CNS) of over 100 µM and a TGI (NCI/ADR-RES ovarian) of over 100 µM. The TGI (SW-620 colon) was over 100 µM, the TGI (TK-10 renal) was over 100 µM and the TGI (NCI-H23 lung) was over 100 µM. The TGI (SNB-19 CNS) was over 100 µM, the TGI (NCI-H460 lung) was over 100 µM and the TGI (COLO 205 colon) was over 100 µM. The TGI (CCRF-CEM leukemia) was over 100 µM, the TGI (HOP-62 NSCLC) was over 100 µM and the TGI (SK-OV-3 ovarian) was over 100 µM. For the same compound, the TGI (SK-MEL-5 melanoma) was over 100 µM, the TGI (EKVX NSCLC) was over 100 µM and the TGI (786-0 renal) was over 100 µM. The TGI (KM12 colon) was over 100 µM, the TGI (MCF7 breast) was over 100 µM and the TGI (SK-MEL-28 melanoma) was over 100 µM. For the same compound, the TGI (HS 578T breast) was 49.8 µM, the TGI (HCC-2998 colon) was over 100 µM and the TGI (M14 melanoma) was over 100 µM. It also gave a TGI (A549 NSCLC) of over 100 µM, a TGI (NCI-H522 lung) of over 100 µM and a TGI (SK-MEL-2 melanoma) of over 100 µM. It also gave a TGI (CAKI-1 renal) of over 100 µM, a TGI (IGROV1 ovarian) of over 100 µM and a TGI (RPMI-8226 leukemia) of over 100 µM. It also gave a TGI (UACC-257 melanoma) of over 100 µM, a TGI (HCT-116 colon) of over 100 µM and a TGI (HOP-92 NSCLC) of over 100 µM. It also gave a TGI (LOX IMVI melanoma) of over 100 µM, a TGI (OVCAR-5 ovarian) of over 100 µM and a TGI (ACHN renal) of over 100 µM. It also gave a TGI (MDA-MB-435) of over 100 µM, a TGI (A498 renal) of over 100 µM and a TGI (MDA-MB-231 breast) of over 100 µM. For the same compound, the TGI (HT29 colon) was over 100 µM, the TGI (HL-60(TB) leukemia) was over 100 µM and the TGI (RXF 393 renal) was over 100 µM. For the same compound, the TGI (U251 CNS) was over 100 µM, the TGI (UACC-62 melanoma) was over 100 µM and the TGI (T-47D breast) was over 100 µM. It also gave a TGI (OVCAR-3 ovarian) of over 100 µM, a TGI (OVCAR-4 ovarian) of over 100 µM and a TGI (K-562 leukemia) of over 100 µM. For the same compound, the TGI (MDA-N) was over 100 µM, the TGI (SN12C renal) was over 100 µM and the TGI (SF-268 CNS) was over 100 µM. It also gave a TGI (SNB-75 CNS) of 99.1 µM, a TGI (MOLT-4 leukemia) of over 100 µM and a TGI (SR leukemia) of over 100 µM. It also gave a TGI (SF-295 CNS) of over 100 µM, a TGI (DU-145 prostate) of over 100 µM and a TGI (PC-3 prostate) of over 100 µM. The TGI (OVCAR-8 ovarian) was over 100 µM.
